{"source": "patent US20200397796A1", "about": "“METHODS OF TREATMENT OF CANCER COMPRISING CHK1 INHIBITORS” (SIERRA ONCOLOGY, INC., priority 2018, published 2020)", "key": {"[1]": {"biological_target": "CYP 2C9 (Homo sapiens, UniProt P11712)", "sequence (P11712 whole entry)": "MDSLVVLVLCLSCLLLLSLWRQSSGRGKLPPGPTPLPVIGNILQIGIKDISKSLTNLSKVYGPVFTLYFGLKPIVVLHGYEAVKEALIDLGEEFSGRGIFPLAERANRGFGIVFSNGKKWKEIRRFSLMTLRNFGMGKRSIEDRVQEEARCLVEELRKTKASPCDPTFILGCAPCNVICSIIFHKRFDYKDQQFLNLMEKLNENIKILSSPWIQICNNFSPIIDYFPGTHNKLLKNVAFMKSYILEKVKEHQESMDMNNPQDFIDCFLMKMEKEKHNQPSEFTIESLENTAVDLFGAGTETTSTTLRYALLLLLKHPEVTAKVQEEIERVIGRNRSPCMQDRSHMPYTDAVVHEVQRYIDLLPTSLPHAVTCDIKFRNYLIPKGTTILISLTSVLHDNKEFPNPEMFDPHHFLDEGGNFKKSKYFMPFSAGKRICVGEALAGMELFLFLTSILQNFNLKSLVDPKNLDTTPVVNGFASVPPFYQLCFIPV", "assay": "CYP inhibition, 2C9", "type": "in vitro ADME", "details": "highest concentration investigated"}, "[2]": {"assay": "GLP 28-day repeat oral dose toxicity and toxicokinetics, monkey", "type": "in vivo", "details": "for AUC(0-t) / Cmax / half-life: po, daily dosing for 28 days", "source_text": "Reference source not found.6."}, "[3]": {"tested_on": "PDX model of TNBC", "assay": "In vivo efficacy, PDX model of TNBC", "set-up": "species or system mouse", "details": "with low-dose gemcitabine; data not shown", "procedure": "(§1) A program of in vivo efficacy studies was performed to assess the activity of SRA737 in combination with genotoxic chemotherapy and targeted agents, and as monotherapy.\n(§2) One of these models also carried a MYCN amplification. A fourth HGSOC PDX model with partial resistance to PARPi was also sensitive to high dose SRA737 monotherapy."}, "[4]": {"biological_target": "CYP 2D6 (Homo sapiens, UniProt P10635)", "sequence (P10635 whole entry)": "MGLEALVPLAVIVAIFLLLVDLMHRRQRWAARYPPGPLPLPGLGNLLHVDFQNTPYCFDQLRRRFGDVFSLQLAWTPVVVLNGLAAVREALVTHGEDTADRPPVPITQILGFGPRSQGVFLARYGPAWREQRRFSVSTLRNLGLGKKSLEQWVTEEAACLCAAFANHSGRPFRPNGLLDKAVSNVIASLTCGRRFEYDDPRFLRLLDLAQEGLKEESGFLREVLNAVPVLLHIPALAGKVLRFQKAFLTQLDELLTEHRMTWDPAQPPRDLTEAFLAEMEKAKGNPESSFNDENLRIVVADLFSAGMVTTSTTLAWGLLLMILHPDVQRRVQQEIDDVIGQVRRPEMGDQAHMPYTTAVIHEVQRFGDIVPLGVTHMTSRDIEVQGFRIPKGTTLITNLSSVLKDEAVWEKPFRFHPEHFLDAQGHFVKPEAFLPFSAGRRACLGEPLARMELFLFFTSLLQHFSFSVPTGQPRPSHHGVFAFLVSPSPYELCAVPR", "assay": "CYP inhibition, 2D6", "type": "in vitro ADME", "details": "highest concentration investigated"}, "[5]": {"tested_on": "CYP1A2", "assay": "CYP1A2 induction in vitro", "type": "in vitro ADME", "details": "positive control omeprazole, concentration dependent"}, "[6]": {"tested_on": "patient-derived bladder carcinoma", "assay": "In vivo efficacy, patient-derived bladder carcinoma model", "set-up": "species or system mouse", "details": "in combination with standard-dose gemcitabine; data not shown", "procedure": "as §1, §2"}, "[7]": {"assay": "Parallel artificial membrane permeability assay (PAMPA)", "type": "in vitro ADME", "procedure": "The membrane permeability of SRA737 was assessed in the parallel artificial membrane permeability assay (PAMPA) and Caco-2 assays. Permeability in the PAMPA assay was classified as low."}, "[8]": {"tested_on": "OVCAR3 model of HGSOC", "assay": "In vivo efficacy, OVCAR3 CDX model", "set-up": "species or system mouse", "details": "data not shown", "procedure": "as §1, §2"}, "[9]": {"tested_on": "CHK1 S296 autophosphorylation", "assay": "Gemcitabine induced CHK1 S296 autophosphorylation in HT29 tumor xenografts (western blotting)", "type": "in vivo, mouse", "details": "oral, 24 hours following gemcitabine 100 mg/kg IV", "procedure": "The effect of SRA737 on Gemcitabine induced CHK1 S296 autophosphorylation was assessed as described in Walton et al. (Oncotarget. 2016 Jan. 19; 7(3): 2329-2342), herein incorporated by reference for all it teaches. Briefly, mice bearing HT29 tumor xenografts were administered (i) vehicle control or (ii) gemcitabine (100 mg/kg in saline, IV) or (iii) a combination of SRA737 (12.5, 25, 50 or 100 mg/kg in DTPW, oral) and gemcitabine (100 mg/kg) with SRA737 administered 24 hours following gemcitabine administration (n=3 per time point per treatment). […] Exposure in the tumor was greater than 10-fold higher than in plasma. The circulating plasma concentration at this 24-hour timepoint corresponded to a free drug concentration of approximately 6 nM (2 ng/mL) based on plasma protein binding in mice of 94%."}, "[10]": {"tested_on": "SJSA-1 human osteosarcoma", "assay": "In vivo efficacy, SJSA-1 xenograft model", "set-up": "species or system mouse", "details": "data not shown", "procedure": "as §1, §2"}, "[11]": {"details": "in vivo, Monkey Female, 2 mg/kg/day"}, "[12]": {"details": "in vivo, Monkey Female, 10 mg/kg/day"}, "[13]": {"details": "in vivo, Monkey Female, 20 mg/kg/day (NOAEL)"}, "[14]": {"details": "in vivo, Monkey Male, 2 mg/kg/day"}, "[15]": {"details": "in vivo, Monkey Male, 10 mg/kg/day"}, "[16]": {"details": "in vivo, Monkey Male, 20 mg/kg/day (NOAEL)"}}, "data": [{"smiles": "N#Cc1cnc(Nc2cc(NCC3CNCCO3)c(C(F)(F)F)cn2)cn1", "note": "(centres unmarked) [SRA737, 5-[[4-[[morpholin-2-yl]methylamino]-5-(trifluoromethyl)-2-pyridyl]amino]pyrazine-2-carbonitrile]", "values": [{"measurement": "IC50", "setting": "[1]", "result": "10 to 50", "unit": "µM"}, {"measurement": "AUC(0-t)", "setting": "[2]; [11]", "result": 2580, "unit": "ng·h/mL"}, {"measurement": "Cmax", "setting": "[2]; [11]", "result": 519, "unit": "ng/mL"}, {"measurement": "half-life", "setting": "[2]; [11]", "result": 8.74, "unit": "h"}, {"measurement": "AUC(0-t)", "setting": "[2]; [12]", "result": 12900, "unit": "ng·h/mL"}, {"measurement": "Cmax", "setting": "[2]; [12]", "result": 1870, "unit": "ng/mL"}, {"measurement": "half-life", "setting": "[2]; [12]", "result": 6.58, "unit": "h"}, {"measurement": "AUC(0-t)", "setting": "[2]; [13]", "result": 24200, "unit": "ng·h/mL"}, {"measurement": "Cmax", "setting": "[2]; [13]", "result": 2320, "unit": "ng/mL"}, {"measurement": "half-life", "setting": "[2]; [13]", "result": 6, "unit": "h"}, {"measurement": "AUC(0-t)", "setting": "[2]; [14]", "result": 3240, "unit": "ng·h/mL"}, {"measurement": "Cmax", "setting": "[2]; [14]", "result": 365, "unit": "ng/mL"}, {"measurement": "half-life", "setting": "[2]; [14]", "result": 6.73, "unit": "h"}, {"measurement": "AUC(0-t)", "setting": "[2]; [15]", "result": 17900, "unit": "ng·h/mL"}, {"measurement": "Cmax", "setting": "[2]; [15]", "result": 2070, "unit": "ng/mL"}, {"measurement": "half-life", "setting": "[2]; [15]", "result": 8.34, "unit": "h"}, {"measurement": "AUC(0-t)", "setting": "[2]; [16]", "result": 20700, "unit": "ng·h/mL"}, {"measurement": "Cmax", "setting": "[2]; [16]", "result": 3170, "unit": "ng/mL"}, {"measurement": "half-life", "setting": "[2]; [16]", "result": 6.84, "unit": "h"}, {"measurement": "NOAEL at 28 days", "setting": "[2]; in vivo, monkey, 28-day repeat oral dose, highest dose tested", "result": 20, "unit": "mg/kg/day"}, {"measurement": "NOAEL", "setting": "[2]; monkey, 28-day repeat oral dose, highest dose tested", "result": 240, "unit": "mg/m^2/day"}, {"measurement": "toxicological findings", "setting": "[2]; pivotal monkey toxicity study", "result": "absence of toxicological findings"}, {"measurement": "synergy", "setting": "[3]", "result": "Synergy"}, {"measurement": "IC50", "setting": "[4]", "result": "10 to 50", "unit": "µM"}, {"measurement": "induction of CYP1A2", "setting": "[5]", "result": "< 10", "unit": "% positive control"}, {"measurement": "antitumor activity", "setting": "[6]", "result": "Significant, dose-dependent antitumor activity"}, {"measurement": "permeability in the PAMPA assay", "setting": "[7]", "result": "low"}, {"measurement": "single agent efficacy", "setting": "[8]; single agent", "result": "single agent efficacy"}, {"measurement": "synergy", "setting": "[8]; with low-dose gemcitabine", "result": "Synergy"}, {"measurement": "SRA737 doses at which inhibition of pS296 Chk1 was observed", "setting": "[9]", "result": "greater than or equal to 12.5 mg/kg"}, {"measurement": "antitumor activity", "setting": "[10]; in combination with standard-dose gemcitabine", "result": "Significant, dose-dependent antitumor activity"}, {"measurement": "synergy", "setting": "[10]; with low-dose gemcitabine", "result": "Synergy"}]}]}
